What all share (experiment): biochemical
Design in all cases: species or system mixed lysate of K562, MV4-11, THP-1, NCI-H1155

Experiment [1] deals with Cyclin-dependent kinase 10 ; CDK10 ; Q15131 (Homo sapiens, UniProt Q15131).
The target of experiment [2] is High affinity nerve growth factor receptor ; NTRK1 ; P04629 (Homo sapiens, UniProt P04629).
Experiment [3] concerns the target Cyclin-dependent kinase 1 ; CDK1 ; P06493 (Homo sapiens, UniProt P06493).
Experiment [4] deals with Epithelial discoidin domain-containing receptor 1 ; DDR1 ; Q08345 (Homo sapiens, UniProt Q08345).
Experiment [5] deals with Calcium/calmodulin-dependent protein kinase kinase 1 ; CAMKK1 ; Q8N5S9 (Homo sapiens, UniProt Q8N5S9).
The target in experiment [6] is Cyclin-dependent kinase 12 ; CDK12 ; Q9NYV4 (Homo sapiens, UniProt Q9NYV4).
The target of experiment [7] is Cyclin-dependent kinase 7 ; CDK7 ; P50613 (Homo sapiens, UniProt P50613).
The target in experiment [8] is Cyclin-dependent kinase 13 ; CDK13 ; Q14004 (Homo sapiens, UniProt Q14004).
Experiment [9] addresses Cyclin-dependent-like kinase 5 ; CDK5 ; Q00535 (Homo sapiens, UniProt Q00535).
In experiment [10] the target is Cyclin-dependent kinase 8 ; CDK8 ; P49336 (Homo sapiens, UniProt P49336).
For experiment [11], the target named is Non-receptor tyrosine-protein kinase TYK2 ; TYK2 ; P29597 (Homo sapiens, UniProt P29597).
Experiment [12] addresses Cyclin-dependent kinase 6 ; CDK6 ; Q00534 (Homo sapiens, UniProt Q00534).
Experiment [13] concerns the target Cyclin-dependent kinase 2 ; CDK2 ; P24941 (Homo sapiens, UniProt P24941).
The target of experiment [14] is T1, Cyclin-dependent kinase-like 5 ; CDKL5 ; O76039 (Homo sapiens, UniProt O76039).
T1 sequence (O76039 1-960): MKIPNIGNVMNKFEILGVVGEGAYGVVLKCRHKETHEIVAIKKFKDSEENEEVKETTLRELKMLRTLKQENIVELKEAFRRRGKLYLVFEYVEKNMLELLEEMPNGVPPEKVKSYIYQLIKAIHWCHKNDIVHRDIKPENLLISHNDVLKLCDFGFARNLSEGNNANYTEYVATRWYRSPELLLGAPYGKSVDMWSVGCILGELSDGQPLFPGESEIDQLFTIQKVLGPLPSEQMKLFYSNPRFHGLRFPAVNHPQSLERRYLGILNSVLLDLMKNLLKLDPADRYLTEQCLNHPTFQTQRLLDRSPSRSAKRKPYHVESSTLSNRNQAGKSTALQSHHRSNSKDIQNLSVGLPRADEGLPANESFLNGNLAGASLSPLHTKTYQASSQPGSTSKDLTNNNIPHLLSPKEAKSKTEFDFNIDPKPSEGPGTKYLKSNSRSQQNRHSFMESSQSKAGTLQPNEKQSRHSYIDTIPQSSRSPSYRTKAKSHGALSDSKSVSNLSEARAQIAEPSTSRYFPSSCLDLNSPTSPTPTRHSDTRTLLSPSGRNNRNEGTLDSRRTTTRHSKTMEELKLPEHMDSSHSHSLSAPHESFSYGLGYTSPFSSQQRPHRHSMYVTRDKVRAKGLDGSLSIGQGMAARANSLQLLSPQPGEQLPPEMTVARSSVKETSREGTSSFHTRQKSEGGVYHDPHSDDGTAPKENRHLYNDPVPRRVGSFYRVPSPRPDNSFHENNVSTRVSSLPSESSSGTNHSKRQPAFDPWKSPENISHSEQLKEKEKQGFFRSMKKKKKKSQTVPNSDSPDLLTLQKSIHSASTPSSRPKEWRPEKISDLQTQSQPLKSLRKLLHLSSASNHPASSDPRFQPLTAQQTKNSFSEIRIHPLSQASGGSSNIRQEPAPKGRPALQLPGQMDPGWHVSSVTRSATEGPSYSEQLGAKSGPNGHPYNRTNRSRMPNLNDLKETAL

Where [15] appears, read: read-out: BAY-1143572 (10 µM) / %Intensity relative to DMSO.
Where [16] appears, read: read-out: BAY-1251152 (10 µM) / %Intensity relative to DMSO.

Read-outs that look alike come from different tables or passages of the source.

Cyclin-dependent kinase 6 ; CDK6 ; Q00534, sequence (Q00534 whole entry, one chain of several): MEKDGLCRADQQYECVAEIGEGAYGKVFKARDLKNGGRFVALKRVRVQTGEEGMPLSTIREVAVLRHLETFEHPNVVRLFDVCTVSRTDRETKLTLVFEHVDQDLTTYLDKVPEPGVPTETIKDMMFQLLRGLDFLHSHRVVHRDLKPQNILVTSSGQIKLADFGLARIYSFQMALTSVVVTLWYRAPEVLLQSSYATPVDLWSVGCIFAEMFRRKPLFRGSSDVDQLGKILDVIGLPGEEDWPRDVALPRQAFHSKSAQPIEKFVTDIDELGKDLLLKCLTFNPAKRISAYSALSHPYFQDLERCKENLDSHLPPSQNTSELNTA
Cyclin-dependent kinase 1 ; CDK1 ; P06493, sequence (P06493 whole entry, the tested form may be a part, one chain of several): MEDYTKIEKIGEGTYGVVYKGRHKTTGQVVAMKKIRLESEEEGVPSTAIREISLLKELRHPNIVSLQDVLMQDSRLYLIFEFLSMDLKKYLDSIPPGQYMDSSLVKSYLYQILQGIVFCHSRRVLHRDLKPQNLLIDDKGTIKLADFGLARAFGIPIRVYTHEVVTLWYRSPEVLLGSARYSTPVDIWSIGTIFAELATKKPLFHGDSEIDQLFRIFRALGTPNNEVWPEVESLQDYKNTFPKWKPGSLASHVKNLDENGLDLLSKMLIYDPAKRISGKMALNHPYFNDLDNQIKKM
Cyclin-dependent kinase 7 ; CDK7 ; P50613, sequence (P50613 whole entry, one chain of several): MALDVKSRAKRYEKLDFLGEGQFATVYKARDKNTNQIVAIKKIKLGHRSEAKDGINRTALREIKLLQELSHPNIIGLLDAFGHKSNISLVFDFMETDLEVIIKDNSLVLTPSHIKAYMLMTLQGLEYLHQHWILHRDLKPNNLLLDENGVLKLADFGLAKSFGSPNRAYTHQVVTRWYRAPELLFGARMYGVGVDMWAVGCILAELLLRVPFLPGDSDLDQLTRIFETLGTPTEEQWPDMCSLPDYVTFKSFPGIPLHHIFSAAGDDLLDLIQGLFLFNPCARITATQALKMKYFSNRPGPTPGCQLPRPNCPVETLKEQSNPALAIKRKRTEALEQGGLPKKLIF
Calcium/calmodulin-dependent protein kinase kinase 1 ; CAMKK1 ; Q8N5S9, sequence (Q8N5S9 whole entry, one chain of several): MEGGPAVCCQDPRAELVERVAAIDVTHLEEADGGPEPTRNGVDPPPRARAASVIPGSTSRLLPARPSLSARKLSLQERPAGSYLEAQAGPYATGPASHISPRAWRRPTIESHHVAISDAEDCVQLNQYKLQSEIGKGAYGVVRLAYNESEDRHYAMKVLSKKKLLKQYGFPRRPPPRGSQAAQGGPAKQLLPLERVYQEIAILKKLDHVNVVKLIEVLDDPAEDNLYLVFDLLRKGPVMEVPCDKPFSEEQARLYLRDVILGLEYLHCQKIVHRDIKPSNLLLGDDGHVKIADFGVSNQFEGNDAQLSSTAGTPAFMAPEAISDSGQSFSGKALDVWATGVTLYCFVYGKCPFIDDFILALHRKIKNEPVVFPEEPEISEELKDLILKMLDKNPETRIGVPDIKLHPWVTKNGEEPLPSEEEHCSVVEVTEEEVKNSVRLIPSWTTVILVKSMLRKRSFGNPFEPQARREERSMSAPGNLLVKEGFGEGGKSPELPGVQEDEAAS
Cyclin-dependent kinase 12 ; CDK12 ; Q9NYV4, sequence (Q9NYV4 whole entry, one chain of several): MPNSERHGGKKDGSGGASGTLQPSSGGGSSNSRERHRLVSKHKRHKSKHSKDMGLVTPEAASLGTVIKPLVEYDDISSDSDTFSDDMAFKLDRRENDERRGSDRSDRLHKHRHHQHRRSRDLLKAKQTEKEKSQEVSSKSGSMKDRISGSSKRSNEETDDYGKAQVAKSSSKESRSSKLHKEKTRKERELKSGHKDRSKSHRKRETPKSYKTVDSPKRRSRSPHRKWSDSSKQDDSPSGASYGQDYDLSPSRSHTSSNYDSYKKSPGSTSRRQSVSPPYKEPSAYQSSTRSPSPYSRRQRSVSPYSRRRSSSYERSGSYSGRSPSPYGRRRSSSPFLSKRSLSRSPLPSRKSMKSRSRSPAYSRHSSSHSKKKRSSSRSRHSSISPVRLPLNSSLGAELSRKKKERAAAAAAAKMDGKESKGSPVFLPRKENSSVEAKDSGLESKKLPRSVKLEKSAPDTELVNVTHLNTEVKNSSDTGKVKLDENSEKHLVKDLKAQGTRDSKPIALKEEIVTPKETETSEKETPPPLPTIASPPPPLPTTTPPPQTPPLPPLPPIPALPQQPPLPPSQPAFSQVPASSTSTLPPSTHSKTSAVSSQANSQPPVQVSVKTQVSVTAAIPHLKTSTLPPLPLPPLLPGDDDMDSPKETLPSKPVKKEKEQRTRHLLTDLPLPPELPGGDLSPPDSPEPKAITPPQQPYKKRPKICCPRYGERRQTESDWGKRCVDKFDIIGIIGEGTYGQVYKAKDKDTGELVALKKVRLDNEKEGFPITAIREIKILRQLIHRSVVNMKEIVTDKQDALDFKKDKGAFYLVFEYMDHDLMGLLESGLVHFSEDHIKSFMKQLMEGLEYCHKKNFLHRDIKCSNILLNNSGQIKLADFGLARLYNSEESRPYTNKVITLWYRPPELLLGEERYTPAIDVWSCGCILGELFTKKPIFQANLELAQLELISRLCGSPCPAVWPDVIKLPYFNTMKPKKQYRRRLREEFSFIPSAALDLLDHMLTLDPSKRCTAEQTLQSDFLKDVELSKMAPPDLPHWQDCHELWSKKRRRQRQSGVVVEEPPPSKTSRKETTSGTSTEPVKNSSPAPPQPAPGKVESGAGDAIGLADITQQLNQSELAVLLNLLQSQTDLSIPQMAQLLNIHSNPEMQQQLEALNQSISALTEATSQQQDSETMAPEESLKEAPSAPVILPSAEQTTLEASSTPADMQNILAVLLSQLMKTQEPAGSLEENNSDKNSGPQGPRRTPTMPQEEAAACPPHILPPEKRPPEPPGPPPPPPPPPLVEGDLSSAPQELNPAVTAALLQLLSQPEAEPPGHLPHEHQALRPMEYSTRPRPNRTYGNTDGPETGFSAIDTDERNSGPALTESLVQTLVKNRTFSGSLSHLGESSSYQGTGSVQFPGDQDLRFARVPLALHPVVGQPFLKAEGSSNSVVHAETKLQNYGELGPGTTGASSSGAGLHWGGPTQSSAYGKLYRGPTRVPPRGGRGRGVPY
Cyclin-dependent-like kinase 5 ; CDK5 ; Q00535, sequence (Q00535 whole entry, one chain of several): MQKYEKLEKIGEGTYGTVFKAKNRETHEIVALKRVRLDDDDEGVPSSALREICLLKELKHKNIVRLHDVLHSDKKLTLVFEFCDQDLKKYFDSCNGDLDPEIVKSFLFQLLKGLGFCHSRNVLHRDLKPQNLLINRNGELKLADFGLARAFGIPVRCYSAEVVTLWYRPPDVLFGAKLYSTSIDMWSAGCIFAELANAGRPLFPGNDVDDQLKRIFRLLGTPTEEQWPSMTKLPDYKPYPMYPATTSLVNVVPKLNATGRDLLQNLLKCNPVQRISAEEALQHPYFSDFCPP
Non-receptor tyrosine-protein kinase TYK2 ; TYK2 ; P29597, sequence (P29597 whole entry): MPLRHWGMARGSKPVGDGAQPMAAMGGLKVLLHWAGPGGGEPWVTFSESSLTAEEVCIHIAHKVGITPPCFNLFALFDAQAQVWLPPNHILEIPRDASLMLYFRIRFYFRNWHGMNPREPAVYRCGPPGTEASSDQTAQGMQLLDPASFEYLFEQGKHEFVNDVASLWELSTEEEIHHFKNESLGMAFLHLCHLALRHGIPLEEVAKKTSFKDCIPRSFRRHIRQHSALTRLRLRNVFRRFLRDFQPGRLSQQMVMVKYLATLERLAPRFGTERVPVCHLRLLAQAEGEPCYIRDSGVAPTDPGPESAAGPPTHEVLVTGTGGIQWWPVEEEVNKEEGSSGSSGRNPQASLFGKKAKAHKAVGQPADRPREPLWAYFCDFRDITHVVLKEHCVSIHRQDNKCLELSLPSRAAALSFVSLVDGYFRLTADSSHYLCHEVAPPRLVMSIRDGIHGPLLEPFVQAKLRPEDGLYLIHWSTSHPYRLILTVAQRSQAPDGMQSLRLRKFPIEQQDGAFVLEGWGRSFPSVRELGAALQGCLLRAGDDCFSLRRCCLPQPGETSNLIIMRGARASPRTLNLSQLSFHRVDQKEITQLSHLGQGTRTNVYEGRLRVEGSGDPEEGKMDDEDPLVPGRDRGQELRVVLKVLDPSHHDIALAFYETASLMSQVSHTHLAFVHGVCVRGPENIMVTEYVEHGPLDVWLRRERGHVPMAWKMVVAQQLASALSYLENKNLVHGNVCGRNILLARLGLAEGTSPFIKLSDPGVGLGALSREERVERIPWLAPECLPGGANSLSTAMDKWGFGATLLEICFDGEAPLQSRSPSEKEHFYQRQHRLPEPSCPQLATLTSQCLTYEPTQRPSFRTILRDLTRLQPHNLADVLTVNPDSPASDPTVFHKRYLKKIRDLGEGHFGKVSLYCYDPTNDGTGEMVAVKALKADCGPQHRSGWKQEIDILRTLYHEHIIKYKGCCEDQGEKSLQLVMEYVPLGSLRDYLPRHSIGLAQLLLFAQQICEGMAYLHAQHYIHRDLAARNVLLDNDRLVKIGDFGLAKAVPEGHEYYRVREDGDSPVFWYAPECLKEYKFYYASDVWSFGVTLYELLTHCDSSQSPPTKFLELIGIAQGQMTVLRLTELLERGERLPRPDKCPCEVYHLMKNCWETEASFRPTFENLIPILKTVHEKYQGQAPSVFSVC
Cyclin-dependent kinase 8 ; CDK8 ; P49336, sequence (P49336 whole entry, one chain of several): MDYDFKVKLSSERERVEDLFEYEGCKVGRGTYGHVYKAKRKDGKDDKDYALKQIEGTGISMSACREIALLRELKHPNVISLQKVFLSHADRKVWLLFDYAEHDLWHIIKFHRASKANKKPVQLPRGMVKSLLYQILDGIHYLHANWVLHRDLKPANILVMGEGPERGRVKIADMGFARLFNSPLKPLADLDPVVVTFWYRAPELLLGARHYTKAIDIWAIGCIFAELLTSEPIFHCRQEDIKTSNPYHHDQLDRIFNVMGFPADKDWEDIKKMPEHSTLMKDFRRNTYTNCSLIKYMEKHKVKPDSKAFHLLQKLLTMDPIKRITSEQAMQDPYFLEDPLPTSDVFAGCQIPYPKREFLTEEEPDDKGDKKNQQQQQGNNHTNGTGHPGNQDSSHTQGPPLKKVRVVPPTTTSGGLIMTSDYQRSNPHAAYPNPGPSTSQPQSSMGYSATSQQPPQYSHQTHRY

Turning to `COc1cc(F)ccc1-c1ncnc(Nc2cccc(C[S@](C)(=N)=O)c2)n1` [BAY-1143572], the remaining activity at 10 µM is 29.6% in [1] (setting [15]); 106% in [2] (setting [15]); 99.5% in [3] (setting [15]); 56% in experiment [4] (setting [15]); 15.4% in experiment [5] (setting [15]); 64.7% in [6] (setting [15]). Further, the remaining activity at 10 µM in experiment [7] (setting [15]) turned out to be 117%; in experiment [8] (setting [15]), 89.2%; in experiment [9] (setting [15]) it was 83.6%; in experiment [10] (setting [15]) it was 114%; in experiment [11] (setting [15]) it was 27.1%; in experiment [12] (setting [15]) it was 94.2%. Besides, the remaining activity at 10 µM in [13] (setting [15]) came out at 31.4%; in [14] (setting [15]) it was 27.1%.

Take `COc1cc(F)ccc1-c1cc(Nc2cc(CS(C)(=N)=O)ccn2)ncc1F` (stereo not shown) [BAY-1251152]: the remaining activity at 10 µM is 16.9% in experiment [1] (setting [16]); 26.5% in experiment [2] (setting [16]); 89.7% in experiment [3] (setting [16]); 48.9% in experiment [4] (setting [16]); 10.4% in [5] (setting [16]); 37.5% in experiment [6] (setting [16]). In addition, the remaining activity at 10 µM in experiment [7] (setting [16]) is 110%; in [8] (setting [16]) it was 58.8%; in experiment [9] (setting [16]) it was 84.7%; in experiment [10] (setting [16]) it was 116%; in experiment [11] (setting [16]), 89.6%; in experiment [12] (setting [16]) it was 82.1%. For the same molecule, the remaining activity at 10 µM in [13] (setting [16]) was determined as 34.1%; in experiment [14] (setting [16]), 78.6%.

For the origin of these results see article doi:10.1101/2024.08.13.607785v1 (biorxiv, 2024).
